Measured values: patent US20230102554A1 (GB002, INC., priority 2019, published 2023)

Columns and labels:
[1] = molecular target: T1, Human PDGFRα, cytoplasmic domain (GST-PDGFRα) (Homo sapiens, UniProt P16234); assay: Human PDGFRα biochemical inhibition assay (off-chip Mobility Shift Assay)
T1 construct: made in house

[2] = molecular target: T2, Human PDGFRβ, cytoplasmic domain (GST-PDGFRβ) (Homo sapiens, UniProt P09619); assay: Human PDGFRβ biochemical inhibition assay (off-chip Mobility Shift Assay)
T2 construct: made in house
T2 sequence (P09619 with tags, fused parts or gaps): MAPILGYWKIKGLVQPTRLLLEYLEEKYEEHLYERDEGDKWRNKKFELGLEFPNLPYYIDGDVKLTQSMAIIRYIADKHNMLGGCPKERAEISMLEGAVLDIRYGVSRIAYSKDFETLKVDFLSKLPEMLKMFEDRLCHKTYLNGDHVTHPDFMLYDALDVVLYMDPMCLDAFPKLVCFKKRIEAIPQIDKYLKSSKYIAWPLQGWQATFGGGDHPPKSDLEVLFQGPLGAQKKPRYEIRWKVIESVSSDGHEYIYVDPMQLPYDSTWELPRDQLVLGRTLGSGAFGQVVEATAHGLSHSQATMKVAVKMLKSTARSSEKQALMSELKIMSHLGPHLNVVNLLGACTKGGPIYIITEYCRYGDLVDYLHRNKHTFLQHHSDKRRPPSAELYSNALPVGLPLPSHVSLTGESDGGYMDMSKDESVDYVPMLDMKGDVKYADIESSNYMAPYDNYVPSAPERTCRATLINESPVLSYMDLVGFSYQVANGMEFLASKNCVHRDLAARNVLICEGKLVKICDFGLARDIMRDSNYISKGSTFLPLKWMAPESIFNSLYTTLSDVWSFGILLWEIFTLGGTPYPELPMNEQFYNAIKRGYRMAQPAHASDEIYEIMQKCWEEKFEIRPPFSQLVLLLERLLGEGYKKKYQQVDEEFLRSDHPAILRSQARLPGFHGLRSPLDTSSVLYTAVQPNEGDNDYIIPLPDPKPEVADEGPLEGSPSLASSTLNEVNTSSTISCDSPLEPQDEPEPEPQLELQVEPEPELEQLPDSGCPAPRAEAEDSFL
Method in brief: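 GST-tagged cytoplasmic domain (aa 557-1106) from baculovirus was incubated 1 h at room temperature with compound, CSKtide, ATP at Km and Mg²⁺ in HEPES buffer, pH 7.5. Phosphorylated and unphosphorylated peptide were separated by off-chip mobility shift, and the product ratio P/(P+S) gave percent inhibition.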

T1 sequence (P16234 550-1089 T674I): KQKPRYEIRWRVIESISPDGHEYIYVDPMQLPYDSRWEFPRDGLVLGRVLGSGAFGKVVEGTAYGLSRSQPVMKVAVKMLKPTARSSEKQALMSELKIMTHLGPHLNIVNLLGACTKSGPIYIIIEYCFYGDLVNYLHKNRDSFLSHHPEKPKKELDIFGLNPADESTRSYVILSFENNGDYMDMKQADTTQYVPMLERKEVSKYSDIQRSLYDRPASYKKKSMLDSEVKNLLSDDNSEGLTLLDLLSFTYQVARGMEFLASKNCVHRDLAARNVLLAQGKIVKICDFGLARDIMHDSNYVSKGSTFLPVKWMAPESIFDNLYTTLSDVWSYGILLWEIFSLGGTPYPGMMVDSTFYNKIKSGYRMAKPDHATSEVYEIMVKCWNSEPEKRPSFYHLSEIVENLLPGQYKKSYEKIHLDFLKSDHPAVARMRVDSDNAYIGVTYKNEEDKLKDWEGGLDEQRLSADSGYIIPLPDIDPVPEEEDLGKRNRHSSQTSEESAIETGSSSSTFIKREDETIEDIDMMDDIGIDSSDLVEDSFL

| Structure (SMILES) | IC50 [1] [nM] | IC50 [2] [nM] |
| --- | --- | --- |
| CCn1cc2ncc(N[C@@H](C)c3cc(NC(=O)Cc4cc(C)ccn4)ccc3C)nc2n1 [Compound 679, (S)-N-(3-(1-((2-ethyl-2H-pyrazolo[3,4-b]pyrazin-6-yl)amino)ethyl)-4-methylphenyl)-2-(4-methylpyridin-2-yl) acetamide] | < 300 | < 300 |
| CCn1cc2ncc(N[C@@H](C)c3cc(NC(=O)Cc4ccc(C(F)(F)F)cn4)ccc3C)nc2n1 [Compound 661, (S)-N-(3-(1-((2-ethyl-2H-pyrazolo[3,4-b]pyrazin-6-yl)amino)ethyl)-4-methylphenyl)-2-(5-(trifluoromethyl)pyridin-2-yl)acetamide] | < 300 | 300 to 1000 |
| Cc1c[nH]c2ncc(N[C@@H](C)c3cccc(NC(=O)c4ccc(C(F)(F)F)nc4)c3)nc12 [Compound 557, (S)-N-(3-(1-((7-methyl-5H-pyrrolo[2,3-b]pyrazin-2-yl)amino)ethyl)phenyl)-6-(trifluoromethyl)nicotinamide] | < 300 | < 300 |
| CCn1cc2ncc(N[C@@H](C)c3cc(NC(=O)Cc4ccc(C(C)(C)O)cn4)ccc3F)nc2n1 [Compound 703, (S)-N-(3-(1-((2-ethyl-2H-pyrazolo[3,4-b]pyrazin-6-yl)amino)ethyl)-4-fluorophenyl)-2-(5-(2-hydroxypropan-2-yl)pyridin-2-yl)acetamide] | ≥ 1000 | ≥ 1000 |
| CCn1cc2ncc(N[C@@H](C)c3cccc(NC(=O)c4cnc(C(F)(F)F)c(C)c4)c3)nc2n1 [Compound 288, (S)-N-(3-(1-((2-ethyl-2H-pyrazolo[3,4-b]pyrazin-6-yl)amino)ethyl)phenyl)-5-methyl-6-(trifluoromethyl)nicotinamide] | < 300 | < 300 |
| Cc1cc2ncc(N[C@@H](C)c3cc(NC(=O)c4ccc(C5CC5)nc4)ccc3F)nc2s1 [Compound 612, (S)-6-cyclopropyl-N-(4-fluoro-3-(1-((6-methylthieno[2,3-b]pyrazin-3-yl)amino)ethyl)phenyl)nicotinamide] | < 300 | < 300 |
| CCn1cc2ncc(N[C@@H](C)c3cc(NC(=O)c4ccc(OC(F)F)nc4)ccc3C)nc2n1 [Compound 511, (S)-6-(difluoromethoxy)-N-(3-(1-((2-ethyl-2H-pyrazolo[3,4-b]pyrazin-6-yl)amino)ethyl)-4-methylphenyl)nicotinamide] | < 300 | < 300 |
| CCn1cc2ncc(N[C@@H](C)c3cc(NC(=O)c4cnc(N5CCN(C)CC5)c(C)c4)ccc3F)nc2n1 [Compound 432, (S)-N-(3-(1-((2-ethyl-2H-pyrazolo[3,4-b]pyrazin-6-yl)amino)ethyl)-4-fluorophenyl)-5-methyl-6-(4-methylpiperazin-1-yl)nicotinamide] | < 300 | < 300 |
| CCn1nc(C(=O)Nc2cccc([C@H](C)Nc3cnc4cnn(C)c4n3)c2)cc1C(C)C [Compound 163, (S)-1-ethyl-5-isopropyl-N-(3-(1-((1-methyl-1H-pyrazolo[3,4-b]pyrazin-6-yl)amino)ethyl)phenyl)-1H-pyrazole-3-carboxamide] | < 300 | < 300 |
| COc1ccc(C(=O)Nc2cccc([C@H](C)Nc3cnc4cnn(C)c4n3)c2)cn1 [Compound 122, (S)-6-methoxy-N-(3-(1-((1-methyl-1H-pyrazolo[3,4-b]pyrazin-6-yl)amino)ethyl)phenyl)nicotinamide] | < 300 | 300 to 1000 |
| CCn1cc2ncc(N[C@@H](C)c3cccc(NC(=O)c4ccc(C=O)c(C)c4)c3)nc2n1 [Compound 401, (S)-N-(3-(1-((2-ethyl-2H-pyrazolo[3,4-b]pyrazin-6-yl)amino)ethyl)phenyl)-4-formyl-3-methylbenzamide] | < 300 | < 300 |
| CCOc1ccc(C(=O)Nc2cccc([C@H](C)Nc3cnc4cnn(C)c4n3)c2)cc1C [Compound 196, (S)-4-ethoxy-3-methyl-N-(3-(1-((1-methyl-1H-pyrazolo[3,4-b]pyrazin-6-yl)amino)ethyl)phenyl)benzamide] | < 300 | < 300 |
| COCc1cncc(C(=O)Nc2cccc([C@H](C)Nc3cnc4cnn(C)c4n3)c2)c1 [Compound 112, (S)-5-(methoxymethyl)-N-(3-(1-((1-methyl-1H-pyrazolo[3,4-b]pyrazin-6-yl)amino)ethyl)phenyl)nicotinamide] | < 300 | < 300 |
| C[C@H](Nc1cnc2cnn(C)c2n1)c1cccc(NC(=O)c2cncc(C(F)F)c2)c1 [Compound 103, (S)-5-(difluoromethyl)-N-(3-(1-((1-methyl-1H-pyrazolo[3,4-b]pyrazin-6-yl)amino)ethyl)phenyl)nicotinamide] | < 300 | < 300 |

Second part, the compound after the results:

| IC50 [1] [nM] | IC50 [2] [nM] | Structure (SMILES) |
| --- | --- | --- |
| < 300 | < 300 | CSc1cc(C(=O)Nc2cccc([C@H](C)Nc3cnc4cnn(C)c4n3)c2)ccc1CN1CCN(C)CC1 [Compound 238, (S)-N-(3-(1-((1-methyl-1H-pyrazolo[3,4-b]pyrazin-6-yl)amino)ethyl)phenyl)-4-((4-methylpiperazin-1-yl)methyl)-3-(methylthio)benzamide] |
| < 300 | < 300 | CCOc1ncc(C(=O)Nc2ccc(F)c([C@H](C)Nc3cnc4cn(CC)nc4n3)c2)cc1C [Compound 316, (S)-6-ethoxy-N-(3-(1-((2-ethyl-2H-pyrazolo[3,4-b]pyrazin-6-yl)amino)ethyl)-4-fluorophenyl)-5-methylnicotinamide] |
| < 300 | < 300 | CCn1cc2ncc(N[C@@H](C)c3cccc(NC(=O)c4cnc(C5CCCC5)s4)c3)nc2n1 [Compound 398, (S)-2-cyclopentyl-N-(3-(1-((2-ethyl-2H-pyrazolo[3,4-b]pyrazin-6-yl)amino)ethyl)phenyl)thiazole-5-carboxamide] |
| ≥ 1000 | 300 to 1000 | Cc1c[nH]c2ncc(N[C@@H](C)c3cccc(NC(=O)c4cnc(C(F)(F)F)s4)c3)nc12 [Compound 572, (S)-N-(3-(1-((7-methyl-5H-pyrrolo[2,3-b]pyrazin-2-yl)amino)ethyl)phenyl)-2-(trifluoromethyl)thiazole-5-carboxamide] |
| < 300 | < 300 | C[C@H](Nc1cnc2cnn(C)c2n1)c1cccc(NC(=O)c2ccc3ncn(C)c3c2)c1 [Compound 73, (S)-1-methyl-N-(3-(1-((1-methyl-1H-pyrazolo[3,4-b]pyrazin-6-yl)amino)ethyl)phenyl)-1H-benzo[d]imidazole-6-carboxamide] |
| < 300 | < 300 | CCn1cc2ncc(N[C@@H](C)c3cc(NC(=O)c4ccc(N5CCN(C)CC5)c(C)c4)ccc3F)nc2n1 [Compound 412, (S)-N-(3-(1-((2-ethyl-2H-pyrazolo[3,4-b]pyrazin-6-yl)amino)ethyl)-4-fluorophenyl)-3-methyl-4-(4-methylpiperazin-1-yl)benzamide] |
| < 300 | < 300 | [2H]C([2H])([2H])n1ncc2ncc(N[C@@H](C)c3cccc(NC(=O)c4cncc(C)c4)c3)nc21 [Compound 184, (S)-5-methyl-N-(3-(1-((1-(methyl-d3)-1H-pyrazolo[3,4-b]pyrazin-6-yl)amino)ethyl)phenyl)nicotinamide] |
| < 300 | < 300 | CCn1cc2ncc(N[C@@H](C)c3cc(NC(=O)Cc4cncc(Cl)c4)ccc3C)nc2n1 [Compound 673, (S)-2-(5-chloropyridin-3-yl)-N-(3-(1-((2-ethyl-2H-pyrazolo[3,4-b]pyrazin-6-yl)amino)ethyl)-4-methylphenyl)acetamide] |
